# Patent publication US9932297B2, “Alkynes and methods of reacting alkynes with 1,3-dipole-functional compounds” (UNIVERSITY OF GEORGIA RESEARCH FOUNDATION, INC., priority 2007, dated 2018)
# Tests used:
# [1] = Shelf life and reactivity towards nucleophiles; format: physicochemical
# [2] = Cycloaddition with benzyl azide, second-order rate constant by 1H NMR; format: physicochemical; settings: for second-order rate constant: NMR
# Protocol: However, upon exposure to azides a fast reaction took place and gave the corresponding triazoles in high yield. For example, triazoles 10-13 were obtained in quantitative yields as mixtures of regioisomers by reaction of the corresponding azido-containing sugar and amino acid derivatives with 3 in methanol for 30 minutes (Scheme 2; FIG. 3 and FIG. 4). The progress of the reaction of 3 with benzyl azide in methanol and in a mixture of water/acetonitrile (1:4 v/v) was monitored by NMR spectroscopy by integration of the benzylic proton signals, and second-order rate constants of 0.17 and 2.3 m^−1s^−1, respectively, were determined.
# A number of analogs (63-68) of 4-dibenzocyclooctynol (61) were prepared and the influence of these modifications on the reaction rate of the cycloaddition with benzyl azide was determined by integration of the benzylic proton signals in ^1H NMR spectrum.
# General Method for Calculating Second Order Rate Constants by NMR.
# Substrates were dissolved separately in the appropriate solvent and mixed 1:1 at 6 mM concentrations. Percent conversion was monitored both by disappearance of starting material and appearance of the two regioisomeric products as determined by integration at multiple chemical shifts. Second order rate constants for the reaction were determined by plotting the 1/[substrates] versus time and analysis by linear regression. Second order rate constants correspond to one half of the determined slope.
# [3] = tested on: Jurkat cells bearing azides (Ac4ManNAz-treated); assay: Cell surface azide labeling and detection by fluorescence intensity (avidin-FITC); format: cell-based, Human
# Protocol: FIG. 6 illustrates embodiments of cell-surface labeling with compounds 2 and 9. Jurkat cells grown for three days in the absence or presence of Ac4ManNAz (25 micromolar) were incubated a) with compounds 2 and 9 (30 micromolar) for 0-180 minutes or b) with compounds 2 and 9 (0-100 micromolar) for 1 hour at room temperature. Next, the cells were incubated with avidin-FITC for 15 minutes at 4° C., after which cell lysates were assessed for fluorescence intensity. Samples are indicated as follows: blank cells incubated with 2 (∘) or 9 (□), and Ac,ManNAz cells incubated with 2 (●) or 9 (▪).
# Next, Jurkat cells were cultured in the presence of 25 micromolar N-azidoacetylmannosamine (Ac4ManNAz) for three days to metabolically introduce N-azidoacetylsialic acid (SiaNAz) moieties into glycoproteins (Luchansky and Bertozzi, Chem-BioChem 2004, 5:1706-1709). As a negative control, Jurkat cells were employed that were grown in the absence of Ac4ManNAz. The cells were exposed to a 30 micromolar solution of compound 9 for various time periods, and after washing, the cells were stained with avidin-fluorescein isothiocyanate (FITC) for 15 minutes at 4° C. The efficiency of the two-step cell-surface labeling was determined by measuring the fluorescence intensity of the cell lysates. […]
# [4] = tested on: CHO cells bearing azides (Ac4ManNAz-treated); assay: Cell labeling and detection by fluorescence (confocal) microscopy; format: cell-based, Chinese hamster
# Protocol: FIG. 8 illustrates fluorescence images for embodiments of cells labeled with compound 9 and avidin-Alexa Fluor 488. CHO cells grown for 3 days in the absence (d-f) or presence (a-c) of Ac4ManNAz (100 micromolar) were incubated with compound 9 (30 micromolar) for 1 hour at 4° C. (a, d) or room temperature (b, c, e, f). Next, cells were incubated with avidin-Alexa Fluor 488 for 15 minutes at 4° C. and, after washing, fixing, and staining for the nucleus with far-red-fluorescent dye TO-PRO, imaged (a, b, d, e) or after washing incubated for 1 hour at 37° C. before fixing, nucleus staining, and imaging (c, f).
# Next, attention was focused on visualizing azido-containing glycoconjugates of living cells by confocal microscopy. Thus, adherent Chinese hamster ovary (CHO) cells were cultured in the presence of Ac4ManNAz (100 micromolar) for three days. The resulting cell-surface azido moieties were treated with 9 (30 micromolar) for 1 hour and then with avidin-AlexaFluor488 for 15 minutes at 4° C.
# Cell-surface glycoconjugates are constantly recycled by endocytosis, and to monitor this process, metabolically labeled cells were reacted with 9 and avidin-AlexaFluor488 according to the standard protocol and incubated at 37° C. for 1 hour before examination by confocal microscopy.
# Chinese hamster ovary (CHO) cells (Clone K1; ATCC) were cultured in Kaighn's modification of Ham's F-12 medium (F-12K) with L-glutamine (2 mM), adjusted to contain sodium bicarbonate (1.5 g L^−1) and supplemented with penicillin (100 u mL^−1)/streptomycin (100 micrograms mL^−1 and FBS (10%). Cells were maintained in a humid 5% CO2 atmosphere at 37° C. CHO cells were grown in the presence of Ac4ManNaz (100 micromolar final concentration) for 3 days to metabolically incorporate SiaNAz into their cell surface glycoproteins. CHO cells bearing azides and untreated control cells were then transferred to a glass coverslip and cultured for 36 hours in their original medium. […] The step size, based on the calculated optimum for each objective, was between 0.25 and 0.5 micrometers. […]
# [5] = Solubility seen in the labeling experiment; format: physicochemical; settings: no increase in labeling above 100 micromolar
# Protocol: The concentration dependence of the cell-surface labeling was studied by incubation of cells with various concentrations of 2 and 9 followed by staining with avidin-FTIC (FIG. 6b).
# [6] = cycloaddition with benzyl azide
smiles,measurement,setting,value
"OC1Cc2ccccc2C#Cc2ccccc21 (stereo not drawn) [Compound 3, 3-Hydroxy-7,8-didehydro-1,2:5,6-dibenzocyclooctene]",shelf life,[1],"excellent, long shelf life"
same,reactivity with nucleophiles,[1]; thiols and amines,did not react with nucleophiles such as thiols and amines
same,rate constant compared with cyclooctyne 1,[2]; acetonitrile/water,three orders of magnitude greater
same,second-order rate constant,[2]; reaction with benzyl azide in methanol,0.17 m^−1s^−1
same,second-order rate constant,[2]; reaction with benzyl azide in water/acetonitrile (1:4 v/v),2.3 m^−1s^−1
"O=C(CCCCC1SCC2NC(=O)NC21)NCCOCCOCCNC(=O)OC1Cc2ccccc2C#Cc2ccccc21 (stereo not drawn) [Compound 9, Carbonic acid 7,8-didehydro-1,2:5,6-dibenzocyclooctene-3-yl ester, 8′-biotinylamine-3′,6′-dioxaoctane 1′-amide]",incubation time after which labeling was almost complete,"[3]; 30 micromolar, room temperature, then avidin-FITC",60 min
same,concentration at which reliable fluorescent labeling was achieved,[3]; 1 hour at room temperature,3 µM
same,labeling efficiency at ambient temperature versus 4° C.,"[4]; 30 micromolar, 1 hour",equally efficient when performed at either ambient temperature or 4 °C
same,location of staining,"[4]; 30 micromolar, 1 hour, then avidin-AlexaFluor488",staining was observed only at the surface
same,internalization of labeled glycoproteins,"[4]; after labeling, incubated at 37° C. for 1 hour",a significant quantity of labeled glycoproteins had been internalized into vesicular compartments
same,solubility,[5],limited solubility
same,effect on cell viability,"Jurkat cells; two-step labeling, morphology and exclusion of trypan blue",no effect on cell viability
"C1#Cc2ccccc2CCc2ccccc21 [Compound 62, reference compound]",times slower reaction than 4-dibenzocyclooctynol (61),[2]; [6],approximately 70 times
"O=C1Cc2ccccc2C#Cc2ccccc21 [Compound 67, 6H-11,12-didehydro-dibenzo[a,e]cyclooctatrien-5-one]",reaction rate compared with 61 (in words),[2]; [6],slightly higher reaction rate than 1
"[Cl][Cu] [Cu^ICl, reference compound]",cell death,Jurkat cells,approximately 98%
